Source: ChEMBL document CHEMBL1157539, “Thousands of chemical starting points for antimalarial lead identification” (Nature, 2010)

Tested on: Plasmodium falciparum
Test: GSK_TCMDC: Inhibition of Plasmodium falciparum 3D7 in whole erythrocytes, using parasite LDH activity as an index of growth.
Type: functional, organism-based
Conditions: not given

Row | Compound | XC50
1 | O=C(C=Cc1ccccc1Br)NC1CCC(CN2CCC(c3c[nH]c4ccccc34)CC2)CC1 (configuration not stated) | 0.687 µM
2 | O=C(/C=C/c1ccccc1Cl)NC1CCC(CN2CCC(c3c[nH]c4ccccc34)CC2)CC1 (configuration not stated) | 0.849 µM

Same assay, conditions: Plasmodium falciparum, 3D7

Row | Compound | XC50
3 | COc1ccc(Cl)cc1N1CCN(CCCNC(=O)c2ccc(-c3nc4cnccc4[nH]3)c(Br)c2)CC1 | 1.15 µM
4 | O=C(NCc1ccco1)c1ccc(CN2CCN(C(c3ccccc3)c3ccccc3)CC2)cc1 | 0.789 µM
5 | Cc1n[nH]c2cc(Nc3nccc(Nc4ccc(Oc5ccccc5)cc4)n3)ccc12 | 0.6 µM
6 | C=C[C@H]1CN2CC[C@H]1C[C@H]2[C@H](O)c1ccnc2ccc(OC)cc12 | 0.426 µM
7 | COc1ccccc1-n1c(SCC(=O)Nc2ccccc2F)nc2cccnc21 | 0.417 µM
8 | CC1(C)NC(N)=NC(=N)N1OCCc1ccccc1 | 0.0032 µM
9 | C[C@H](NC(=O)C1CCCC1)C(=O)Nc1ccc(-c2ccc(-c3nc4cc(C(F)(F)F)ccc4[nH]3)cc2)cc1 | 0.272 µM
10 | Fc1ccc(C=NN=c2cc[nH]c3ccc(C(F)(F)F)cc23)cc1 | 1.1 µM
11 | Oc1cccc(C2CCCN(Cc3cccc4cc[nH]c34)C2)c1 (configuration not stated) | 0.507 µM
12 | CCn1c(-c2nonc2N)nc2c(-c3cccc(Cl)c3)ncc(OCCCNCc3cnc(C)nc3N)c21 | 1.01 µM
13 | CCCc1ccc(NC(=O)c2ccc(CN3CCCN(CC4CCCCC4)CC3)cc2)cc1 | 0.524 µM
14 | CC(Cc1ccc(Cl)cc1)Nc1nc(NC2CCCC2)nc(N2CCC(C#N)(c3ccccc3)CC2)n1 (configuration not stated) | 0.715 µM
15 | Nc1ncc(-c2ccc3[nH]ccc3c2)c2ccc(-c3ccncc3)cc12 | 0.542 µM
16 | Cc1cc(CN2CCN(CCOC(c3ccccc3)c3ccccc3)CC2)ccc1O | 0.935 µM
17 | CO/C(=C\C=C\c1cc2cc(Cl)c(Cl)cc2[nH]1)C(=O)NCCCN1CCN(c2cccc(CCO)c2)CC1 | 0.716 µM
18 | O=C(/C=C/c1ccc(Cl)cc1)NCCCCCN1CCN(C(=O)C=Cc2ccc(Cl)c(Cl)c2)CC1 | 0.987 µM
19 | C#CCN1CCC2=C(C1)c1c(O)cc(C(C)C(C)CCc3ccc(F)cc3)cc1OC2(C)C (configuration not stated) | 0.175 µM
20 | c1ccc(-c2ccc(-c3csc(Nc4ccncc4)n3)cc2)cc1 | 1.01 µM
21 | Cc1[nH]c(C)c(-c2ccc(-c3cccc(OC(F)(F)F)c3)nc2)c(=O)c1Cl | 0.0745 µM
22 | CCN(C(=O)c1ccc(NC(=O)c2cccs2)cc1)c1nc2c(C)cccc2s1 | 0.85 µM
23 | Cc1noc(C)c1-c1cccc(CNCc2cccc(-c3cccc(-c4nc5cc(C(F)(F)F)ccc5[nH]4)c3)c2)c1 | 0.456 µM
24 | CC(C)c1ccc(NC(=O)c2ccc(C(=O)NC3CCN(Cc4ccsc4)C3)cc2)cc1 (configuration not stated) | 1.03 µM
25 | CCOc1cc(C(=O)NCC2CCN(CC3CCCCC3)CC2)ccc1-c1nc2cc(Cl)ccc2[nH]1 | 0.563 µM
26 | CCC(NC[C@@H](O)[C@H](Cc1ccccc1)NC(=O)c1cc(C2CCCC2)cc(N2CCCC2=O)c1)c1cccc(Cl)c1 (some centres not stated) | 0.0352 µM

Row | Compound | XC50
27 | CS(=O)(=O)c1ccc(OCCCN(Cc2ccccc2C(F)(F)F)c2ccc(C#N)c(C(F)(F)F)c2)cc1 | 1.02 µM
28 | COc1cccc2c(N/N=C/c3cccc([N+](=O)[O-])c3)ccnc12 | 0.748 µM
29 | CCCNC(=O)c1cncc(-c2ccc(CNC3Cc4ccccc4C3)cc2)c1 | 0.848 µM
30 | O=C(Nc1cccc(CN2CCCN(CCc3ccccc3)CC2)c1)c1cc2ccccc2s1 | 1.13 µM
31 | O=C(CCC1CCCCC1=O)c1ccccc1 (configuration not stated) | 0.766 µM
32 | COc1cccc(OCC2CCCN(CCCCNC(=O)c3ccc(NC(=O)c4ccc(Cl)cc4)cc3)C2)c1 (configuration not stated) | 0.748 µM
33 | O=C1SC(S)=NC1=CNCCCCCCO | 0.85 µM
34 | COc1ccc2nc3cc(Cl)ccc3c(Nc3ccc(O)c(CNC(C)C)c3)c2c1 | 0.14 µM
35 | COc1ccc2ncc(C#N)c(CCN3C[C@H](CNCc4ccccc4)[C@H](O)C3)c2n1 | 1.06 µM
36 | Cc1cc(N[C@@H](Cc2ccccc2)C(=O)NCc2cccc(F)c2)nc(NCc2ccccc2C)n1 | 0.981 µM
37 | COc1ccc(Nc2nccc(N3CCC(NS(=O)(=O)c4ccc(NC(C)=O)cc4)C3)n2)cc1 (configuration not stated) | 0.795 µM
38 | CCN1C(c2ccc(Cl)cc2)C(CNCc2ccccc2O)CC1(C)CO (configuration not stated) | 0.311 µM
39 | Cc1cc(CN2CC[C@H](NC(=O)c3ccc(Cl)c(Cl)c3)C2)ccc1OC1CCN(Cc2ccccc2)CC1 | 0.906 µM
40 | CCc1ccc(O)c(-c2cc(C(=O)Nc3cccnc3)[nH]n2)c1 | 0.689 µM
41 | COc1cc(F)c2ncc(Cl)c(CCN3CCC(NCc4ccc5c(c4)OCCO5)CC3)c2c1 | 0.469 µM
42 | CCN(CCNc1nc(NCCc2cnc[nH]2)nc(N(CCC#N)Cc2ccccc2)n1)c1cccc(C)c1 | 0.715 µM
43 | Cc1cccc2nc(-c3ccc(-c4cccc(CN5CCCC5CN)c4)cc3)[nH]c12 (configuration not stated) | 0.914 µM
44 | c1ccc2c(CNc3ccnc(NCc4cccc5ccccc45)n3)cccc2c1 | 0.559 µM
45 | Cc1cccc2nc(-c3ccc(-c4cccc(CN5CCCC5CN)c4)s3)[nH]c12 (configuration not stated) | 0.867 µM
46 | CCn1cc(CN2CCCC(C(=O)Nc3ccc(-c4nc5ccccc5[nH]4)cc3)C2)c(C)n1 (configuration not stated) | 0.802 µM
47 | Cc1[nH]c2ccccc2c1C1=CCN(CCN2CCCc3c(Br)cccc3C2=O)CC1 | 0.659 µM
48 | COc1cccc(NC(=O)CSc2nc(-c3ccccc3Cl)ns2)c1 | 0.814 µM
49 | NS(=O)(=O)c1cccc(Nc2nc(N[C@@H]3CCNC3)nc3cc[nH]c(=O)c23)c1 | 0.94 µM
50 | O=c1cc(NCCC(CNCc2ccoc2)NCc2cc(Br)cc(Br)c2)[nH]c2ccccc12 (configuration not stated) | 0.91 µM

Row | Compound | XC50
51 | CCOc1cc[nH]c(=O)n1 | 0.458 µM
52 | Cc1[nH]c2ccccc2c1CC1CCN(CC2CCN(C(=O)/C=C/c3ccc(Cl)c(Cl)c3)CC2)CC1 | 0.95 µM
53 | CN(Cc1cccc(F)c1)C1CCN(c2cc(NC(=O)c3cccc(F)c3)ccn2)CC1 | 1.16 µM
54 | Cc1ccc2[nH]c(C)cc(=NN=Cc3cccc(Cl)c3)c2c1 | 0.739 µM
55 | Clc1ccc(OCCC2CCN(CCCCCCCN3CCC(CCOc4ccc(Cl)c(Cl)c4)CC3)CC2)cc1Cl | 0.624 µM
56 | CC1CCC2(CC1)N=C(N)N=C(N)N2OCc1ccc(Br)c2ccccc12 (configuration not stated) | 0.216 µM
57 | CC(C)Oc1ccc(N2CCN(CCCCNC(=O)c3ccc(NC(=O)c4ccc(Cl)cc4)cc3)CC2)c(OC(C)C)c1 | 0.512 µM
58 | CC(C)Nc1nc(NCCc2c[nH]cn2)nc(NCc2cccc3ccccc23)n1 | 1.01 µM
59 | Cc1ccc(S(=O)(=O)N2CCN(C(=O)c3cc(-c4cccs4)n[nH]3)CC2)c(C)c1 | 0.866 µM
60 | CNCCN(C)C(=O)Oc1c(Br)c(C)nc(C)c1-c1ccc(Oc2ccc(OC(F)(F)F)cc2)cc1 | 0.109 µM
61 | CN(C)CCCOc1ccc(CN2CC[C@H](NC(=O)c3ccc(Cl)c(Cl)c3)C2)cc1Br | 0.763 µM
62 | COc1ccc(Nc2ncc(C#N)c(Nc3ccccc3C(N)=O)n2)cc1N1CCN(C)CC1 | 0.136 µM
63 | N#Cc1cnc2cc(-c3cnc(CNCCN4CCOCC4)s3)ccc2c1Nc1ccc(Oc2ccccc2)cc1 | 0.726 µM
64 | CCOc1c(OC)ccc2c1CCN(CCN1CCC(NC(=O)c3ccc(-c4cccc(C(F)(F)F)c4C(F)(F)F)cc3)CC1)C2 | 0.728 µM
65 | CCN1CCN(c2cc(C)c3cc(NC(=O)c4cccc([N+](=O)[O-])c4)ccc3n2)CC1 | 0.524 µM
66 | Cc1cccc(OC2CCN(c3ncc(C(=O)NCCCN4CCCC4=O)cc3Cl)CC2)c1 | 0.183 µM
67 | CC(=O)Nc1ccc(CN2CCC(N(C)c3ccc(NC(=O)c4cccc(C)c4)cc3)CC2)cc1 | 0.986 µM
68 | OC(CNCc1ccco1)Cn1c2ccc(Br)cc2c2cc(Br)ccc21 (configuration not stated) | 1.07 µM
69 | O=C1Nc2cccc3c2C1(CCCCN1CC=C(c2c[nH]c4ncccc24)CC1)CCC3 (configuration not stated) | 0.395 µM
70 | CC(C)Oc1cccc(-c2ccc(C(=O)NCC3CCCN(Cc4cccc(C(F)(F)F)c4)C3)s2)c1 (configuration not stated) | 1.08 µM
71 | CN1CCC(C(=O)Nc2cccc(-c3ccc(-c4nc5cc(F)ccc5[nH]4)cc3)c2)CC1 | 0.706 µM
72 | CC(C)CN(c1nc(C(=O)NNC(=O)[C@H](CC2CC2)NC(=O)c2cc3cc(OCCN(C)C)ccc3o2)cs1)C1CC1 | 1.03 µM
73 | CC(C)Cc1c(O)nc(SCCN2CCOCC2)[nH]c1=O | 1.26 µM
74 | COc1ccc(-c2nc(NC(=O)CS(=O)(=O)c3ccc(C)cc3)sc2C)cc1 | 0.401 µM

Row | Compound | XC50
75 | CCC(CC)NCc1c(O)ccc2c(CNC(CC)CC)c(O)ccc12 | 0.39 µM
76 | CCOC(=O)/C(=N\OC(C(=O)OC(C)(C)C)c1ccccc1)c1csc(NC(c2ccccc2)(c2ccccc2)c2ccccc2)n1 (configuration not stated) | 1.11 µM
77 | NC(=O)C1CCN(Cc2cccc(-c3cccc(-c4nc5cc(C(F)(F)F)ccc5[nH]4)c3)c2)CC1 | 0.641 µM
78 | O=C(Nc1ccc(O)c(-c2nc3ccccc3[nH]2)c1)c1ccc([N+](=O)[O-])cc1 | 0.318 µM
79 | OCCCCCCNc1nc(NCc2ccccc2-c2ccc(C(F)(F)F)cc2)nc(N2CCNCC2)n1 | 1.44 µM
80 | CCOc1ccc2c(=NN=Cc3cccc(Cl)c3)cc(C)[nH]c2c1 | 0.864 µM
81 | CC1CCC2(CC1)NC(N)=NC(=N)N2OCCCCCCCCO (configuration not stated) | 0.147 µM
82 | O=C(C=Cc1ccccc1Br)NC1CCC(CN2CCC(c3c[nH]c4ccccc34)CC2)CC1 (configuration not stated) | 0.737 µM
83 | CC1CCN(Cc2ccc(NC(=O)c3cc4ccc5cccnc5c4[nH]3)cc2)CC1 | 0.779 µM
84 | CN1CCC(C(=O)N(Cc2ccc(-c3ccc(CNCCc4ccc(S(C)(=O)=O)cc4)cn3)cc2)Cc2cccc(F)c2)CC1 | 0.706 µM
85 | FC(F)(F)c1ccc2[nH]c(-c3ccc(-c4cccc(CNCCN5CCNCC5)c4)s3)nc2c1 | 1.04 µM
86 | COc1ccc(Cl)c(CC2c3cc(O)c(Cl)cc3CCN2C)c1 (configuration not stated) | 0.695 µM
87 | CCOC(=O)c1cccc(NC(=O)Nc2cccc(-c3ncc(OCCCN)c4c3nc(-c3nonc3N)n4CC)c2)c1 | 0.894 µM
88 | c1ccc(N2CCN(c3cc(-c4cccnc4)nc(-c4ccncc4)n3)CC2)nc1 | 0.757 µM
89 | Cc1cc2c(NC(=O)NC3CCN(CCc4cccc(Cl)c4)CC3)cccc2cn1 | 0.37 µM
90 | O=C(Nc1ccc(-c2nc3ccc(NC(=O)c4ccc(Br)cc4)cc3[nH]2)cc1)c1ccc(Br)cc1 | 0.786 µM
91 | Cc1cc([N+](=O)[O-])ccc1N1CCN(CCCCNC(=O)c2ccc(NC(=O)c3ccc(Cl)cc3)cc2)CC1 | 0.887 µM
92 | Cc1ccc2cc(NC(=O)c3cccc(C(=O)Nc4ccc5nc(C)ccc5c4)n3)ccc2n1 | 1.17 µM
93 | CC(C)(C)OC(=O)NCc1ccc(Nc2nnc(-c3cccc(C(=O)NCCC(c4ccccc4)c4ccccc4)c3)o2)cc1 | 0.581 µM
94 | CN(C)CCOc1ccc(N2CCN(CCCCNC(=O)c3ccc(/C=C/c4cc(Cl)cc(Cl)c4)cc3)CC2)cc1 | 1 µM
95 | O=C(/C=C/c1ccc(Cl)c(Cl)c1)NCCCCCN1CCC(NC(=O)Nc2ccc(F)c(Cl)c2)CC1 | 0.619 µM
96 | O=C(/C=C/c1ccccc1Cl)NC1CCC(CN2CCC(c3c[nH]c4ccccc34)CC2)CC1 (configuration not stated) | 0.603 µM
97 | Cc1nc(-c2cccc3c(NC(=O)Nc4ccc5nccc(N6CCN(C)CC6)c5c4)cccc23)no1 | 0.235 µM
